Holding throughout (type): cell-based
One experiment has as its target T1, CCL17 N78V (Homo sapiens, UniProt Q92583, N78V).
T1 construct: codes for the mature CCL17 or CCL22 with an N-terminal thioredoxin-hexahistidin (TRX- (His)6) tag; TRX-(His)6 (N, cleaved yes); made in house; host or cells: E. coli BL21 (DE3)
As to the kind of experiment: Calcium responses induced by chemokine mutant, neutraligand protocol. Particulars: 10 μM compound, 5 nM chemokine; remaining response. The method, then: (§1) Dye loaded cells were placed in the FlexStation 3 (Molecular Devices). […] For the primary screening, the ligands (50μl of chemokine mixed with DMSO or test compounds) were added to the cells at 40 s, followed by digitonin addition (50μl) at 100 s to the cells. Molecules were screened at a final concentration of 2μg/ml with 5 nM CCL17 or CCL22. […] The calcium response values (height of peak response over baseline) were determined. Hits were selected by comparing the response amplitude at the time of the chemokine addition ± test compound. The Z’ factor[29] was calculated according to the following equation: Z’ = 1-(3SD+ + 3SD−)/|Ave+ − Ave−|, where SD+ and Ave+ are respectively the standard deviation and the mean value of the positive controls (chemokine + DMSO), while SD− and Ave− are respectively the standard deviation and the mean value of the negative controls (HEPES-BSA (0.1%) mixed with DMSO, or cells mixed with C-021). Hit molecules were confirmed by performing concentration-response curves and their half maximal inhibitory concentration (IC50) values were calculated using the Kaleidagraph software.
(§2) and the denaturated chemokines (disulfite bonds reduced by β-mercaptoethanol). The
(§3) chemokine activity was then, tested in the in vitro assays.
(§4) On-column refolding and purification of CCL5, CXCL8, CXCL10, CXCL11, CXCL12, CCL17
(§5) performed in a similar fashion as for CCL17 and CCL22. […]

In a further experiment the target is T2, CCL17 R80W (Homo sapiens, UniProt Q92583, R80W).
T2 construct: codes for the mature CCL17 or CCL22 with an N-terminal thioredoxin-hexahistidin (TRX- (His)6) tag; TRX-(His)6 (N, cleaved yes); made in house; host or cells: E. coli BL21 (DE3)
The experiment is described as above. Particulars: 10 μM compound, 5 nM chemokine; remaining response. The method, then:
as §1, §2, §3, §4, §5

The next experiment deals with T3, CCL17 S74A (Homo sapiens, UniProt Q92583, S74A).
T3 construct: codes for the mature CCL17 or CCL22 with an N-terminal thioredoxin-hexahistidin (TRX- (His)6) tag; TRX-(His)6 (N, cleaved yes); made in house; host or cells: E. coli BL21 (DE3)
The description is as above. Particulars: 10 μM compound, 5 nM chemokine; remaining response. The method, then:
as §1, §2, §3, §4, §5

The target of the next experiment is T4, CCL22 D58A (Homo sapiens, UniProt O00626, D58A).
T4 construct: codes for the mature CCL17 or CCL22 with an N-terminal thioredoxin-hexahistidin (TRX- (His)6) tag; TRX-(His)6 (N, cleaved yes); made in house; host or cells: E. coli BL21 (DE3)
The experiment is described as above. Particulars: 10 μM compound, 5 nM chemokine; remaining response. The method, then: (§6) Dye loaded cells were placed in the FlexStation 3 (Molecular Devices). Calcium mobilization was measured at 401 and 475 nm emission fluorescence after excitation at 355 nm. For the primary screening, the ligands (50μl of chemokine mixed with DMSO or test compounds) were added to the cells at 40 s, followed by digitonin addition (50μl) at 100 s to the cells. Molecules were screened at a final concentration of 2μg/ml with 5 nM CCL17 or CCL22. […] Raw fluorescence data (at 401 and 475 nm) were exported and the ratio 401/475 was calculated. The calcium response values (height of peak response over baseline) were determined. Hits were selected by comparing the response amplitude at the time of the chemokine addition ± test compound. The Z’ factor[29] was calculated according to the following equation: Z’ = 1-(3SD+ + 3SD−)/|Ave+ − Ave−|, where SD+ and Ave+ are respectively the standard deviation and the mean value of the positive controls (chemokine + DMSO), while SD− and Ave− are respectively the standard deviation and the mean value of the negative controls (HEPES-BSA (0.1%) mixed with DMSO, or cells mixed with C-021). Hit molecules were confirmed by performing concentration-response curves and their half maximal inhibitory concentration (IC50) values were calculated using the Kaleidagraph software.
as §2
(§7) chemokine activity was then, tested in the in vitro assays. […]

Another experiment concerns the target T5, CCL22 R80N (Homo sapiens, UniProt O00626, R80N).
T5 construct: codes for the mature CCL17 or CCL22 with an N-terminal thioredoxin-hexahistidin (TRX- (His)6) tag; TRX-(His)6 (N, cleaved yes); made in house; host or cells: E. coli BL21 (DE3)
The experiment is described as above. The following applies: 10 μM compound, 5 nM chemokine; remaining response. The protocol: as §6, §2, §7

In the next experiment the target is T6, CCL22 W55A (Homo sapiens, UniProt O00626, W55A).
T6 construct: codes for the mature CCL17 or CCL22 with an N-terminal thioredoxin-hexahistidin (TRX- (His)6) tag; TRX-(His)6 (N, cleaved yes); made in house; host or cells: E. coli BL21 (DE3)
The experiment is described as above. Particulars: 10 μM compound, 5 nM chemokine; remaining response. The protocol:
as §6, §2, §7

For the next experiment, the target named is T7, CXCL12 (Homo sapiens, UniProt P48061).
T7 construct: (His)6; made in house; host or cells: E. coli BL21 (DE3)
As to the kind of experiment: TRIC-r calcium assay, neutraligand protocol, EGFP-CXCR4+ HEK cells. Particulars: 10 μM compound, 5 nM CXCL12, EGFP-CXCR4+ HEK cells.

A further experiment deals with T8, CCR4 (Homo sapiens, UniProt P51679).
T8 construct: signal peptide fused to EGFP (N); expressed in transfected cells; host or cells: HEK-293
T8 sequence (P51679 1-360): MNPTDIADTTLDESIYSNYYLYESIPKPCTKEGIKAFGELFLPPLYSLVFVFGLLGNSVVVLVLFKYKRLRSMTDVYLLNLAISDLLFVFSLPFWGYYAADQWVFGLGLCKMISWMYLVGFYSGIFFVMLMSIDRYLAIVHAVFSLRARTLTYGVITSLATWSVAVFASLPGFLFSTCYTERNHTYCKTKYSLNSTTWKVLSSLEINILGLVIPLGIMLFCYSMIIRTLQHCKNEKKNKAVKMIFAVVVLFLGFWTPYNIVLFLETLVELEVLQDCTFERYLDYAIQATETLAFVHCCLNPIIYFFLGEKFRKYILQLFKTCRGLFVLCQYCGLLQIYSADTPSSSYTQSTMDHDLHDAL
Nature of the experiment: EGFP-CCR4 receptor surface level / endocytosis on EGFP-CCR4+ HEK cells. Particulars: without chemokine, data not shown. The method, then:
CCR4 levels were evaluated by flow cytometry (FACSCalibur, BD biosciences) using cell surface labeling of EGFP with monoclonal mouse anti-GFP (Roche Applied Science; 1:100 dilution) as primary antibody and R-phycoerythrin conjugated AffiniPure F (ab’)2 fragment goat anti-mouse (Immunotech; 1/100) as secondary antibody.

Consider two compounds from publication PMC4595804, “A strategy to discover decoy chemokine ligands with an anti-inflammatory activity” (Scientific Reports, 2015).

T4 sequence (O00626 25-93 D58A): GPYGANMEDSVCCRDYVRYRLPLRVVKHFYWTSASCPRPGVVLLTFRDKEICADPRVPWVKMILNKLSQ
T3 sequence (Q92583 24-94 S74A): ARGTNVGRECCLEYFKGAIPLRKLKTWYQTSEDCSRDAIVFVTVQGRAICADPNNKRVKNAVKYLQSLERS
T1 sequence (Q92583 24-94 N78V): as the sequence (Q92583 24-94 S74A) above, with A51S, N55V counted along it
T7 sequence (P48061 22-93): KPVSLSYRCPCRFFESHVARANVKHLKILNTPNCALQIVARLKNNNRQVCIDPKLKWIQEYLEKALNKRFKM
T5 sequence (O00626 25-93 R80N): as the sequence (O00626 25-93 D58A) above, with A34D, R56N counted along it
T2 sequence (Q92583 24-94 R80W): as the sequence (Q92583 24-94 S74A) above, with A51S, R57W counted along it
T6 sequence (O00626 25-93 W55A): as the sequence (O00626 25-93 D58A) above, with W31A, A34D counted along it

For `O=C(OCC(O)CO)c1ccccc1O` (stereo not shown) [GPN136, 2,3-dihydroxypropyl 2-hydroxybenzoate], the “calcium response induced by CCL17 N78V preincubated with compound” value at CCL17 N78V is listed as “totally ineffective”. For the same compound, the “calcium response induced by CCL17 R80W preincubated with compound” value on CCL17 R80W is recorded as “totally ineffective”. Besides, the “calcium response induced by CCL17 S74A preincubated with compound” value on CCL17 S74A is recorded as “totally ineffective”. Further, the “calcium response induced by CCL22 D58A preincubated with compound” value at CCL22 D58A came out at 76.0 ± 3.0%. Moreover, the “calcium response induced by CCL22 R80N preincubated with compound” value at CCL22 R80N is 100.0 ± 3.0%. Also, the “calcium response induced by CCL22 W55A preincubated with compound” value at CCL22 W55A is reported as 46.0 ± 3.0%. Further, the “effect on calcium responses induced by CXCL12” value on CXCL12 is “no effect”. For the same compound, the “effect on CCR4 receptor surface level on its own” value on CCR4 is “Neither GPN279 nor GPN136 did alter”.
For `CC(C)=CCn1cnc2c1c(=O)n(C)c(=O)n2C` [GPN279, 1,3-dimethyl-7-(3-methylbut-2-enyl)-1H-purine-2,6(3H, 7H)-dione], on CCL17 N78V, the “calcium response induced by CCL17 N78V preincubated with compound” value worked out at 75.0 ± 6.0%. Besides, the “calcium response induced by CCL17 R80W preincubated with compound” value on CCL17 R80W stood at 50.0 ± 11.0%. Moreover, the “calcium response induced by CCL17 S74A preincubated with compound” value at CCL17 S74A was “no longer acted as a neutralizing molecule”. Moreover, the “calcium response induced by CCL22 D58A preincubated with compound” value at CCL22 D58A is “neither inhibited WT nor CCL22 mutants”. Further, the “calcium response induced by CCL22 R80N preincubated with compound” value on CCL22 R80N is “neither inhibited WT nor CCL22 mutants”. Moreover, the “calcium response induced by CCL22 W55A preincubated with compound” value on CCL22 W55A is “neither inhibited WT nor CCL22 mutants”. Also, the “effect on calcium responses induced by CXCL12” value on CXCL12 was “no effect”. Also, the “effect on CCR4 receptor surface level on its own” value on CCR4 is listed as “Neither GPN279 nor GPN136 did alter”.
